Values after ≈ are worked out from the molar mass of the structure shown.
Conditions: buffer; pH 7.4; 200.0 µM

| SMILES | solubility kinetic |
| --- | --- |
| O=C(CCc1ccccc1)Nc1ccc2c(c1)C(=O)OC2 | 15.4 µg/mL (≈ 54.7 µM) |
| O=C(NC(Cc1ccc(O)cc1)C(=O)O)c1ccco1 (centres undefined) | > 41.3 µg/mL |
| CCN(CC)CCNC(=O)c1cc2cc3ccc(OC)cc3nc2o1 | 45.9 µg/mL (≈ 134 µM) |
| O=C(NCc1nc2ccccc2[nH]1)c1ccccc1F | > 40.4 µg/mL |
| Cc1ccc(C(=O)OCC(=O)NC(C)C2CC3CCC2C3)cc1N (centres undefined) | > 49.6 µg/mL |
| CC(C)c1ccc(S(=O)(=O)NC2CCCC2)cc1 | > 40.1 µg/mL |
| COC(=O)c1ccncc1N | > 22.8 µg/mL |
| Cc1ccc(OCC(=O)N2CC(C)OC(C)C2)c([N+](=O)[O-])n1 (centres undefined) | > 46.4 µg/mL |
| COc1cccc(CNC(=S)Nc2cccc(Cl)c2C)c1 | 29.9 µg/mL (≈ 93.2 µM) |
| COc1ccccc1C1N=C(c2ccccc2C)NO1 (centres undefined) | 24 µg/mL (≈ 89.4 µM) |
| Cc1ccc(C(=O)Nc2ccc(CN3CCS(=O)(=O)CC3)cc2)cc1C | 42.7 µg/mL (≈ 115 µM) |
| COc1ccccc1CNS(=O)(=O)c1cc(C(=O)NCC2CCCO2)c(Cl)cc1Cl (centres undefined) | > 71 µg/mL |
| O=S(=O)(Nc1ncccn1)c1cc(Cl)ccc1Cl | > 45.6 µg/mL |
| CC(=O)c1c(-c2ccc(Cl)cc2Cl)noc1C | 17.5 µg/mL (≈ 64.8 µM) |
| Cc1cccc(NC(=O)CCN2CCCC(C)C2)c1.Cl (centres undefined) | > 44.5 µg/mL |
| CCC(=O)Nc1ccc2c(c1)ncn2-c1ccccc1C | > 41.9 µg/mL |
| Cc1ccc(C)c(OCCC(=O)Nc2ccccc2C(=O)NC2CC2)c1 | 4.2 µg/mL (≈ 11.9 µM) |
| COCCCNC(=O)C(C)N1c2cccc3cccc(c23)S1(=O)=O (centres undefined) | 50.2 µg/mL (≈ 144 µM) |
| O=C(NN1C(=O)C2C3C=CC(C3)C2C1=O)C(O)c1ccccc1 (centres undefined) | > 46.8 µg/mL |
| COCCNC(=O)/C(C#N)=C/c1cccs1 | > 35.4 µg/mL |
| O=C(Nc1nc2ccccc2[nH]1)C1CCCC1 | 4 µg/mL (≈ 17.4 µM) |
| CC(C)N(Cc1ccccc1)C(=O)COC(=O)c1c(F)cccc1F | > 52.1 µg/mL |
| O=C(O)/C=C/C(=O)Nc1ccc(S(=O)(=O)N2CCCC2)cc1 | > 48.7 µg/mL |
| COc1ccc(NC(=O)c2c(N)no[n+]2[O-])c(OC)c1 | 1.5 µg/mL (≈ 5.35 µM) |
| CN1CCC(N(C)c2ccc(C(N)=O)cc2[N+](=O)[O-])CC1 | 40.1 µg/mL (≈ 137 µM) |

| SMILES | solubility kinetic |
| --- | --- |
| CCSc1nsc(NC(=O)Nc2ccc(F)cc2F)n1 | 1.7 µg/mL (≈ 5.37 µM) |
| CC(NC(=O)COC(=O)c1ccc[nH]c1=O)c1ccccc1 (centres undefined) | > 45 µg/mL |
| CNC(=O)c1c(NC(=O)c2ccc3ncsc3c2)sc(C)c1C | 2 µg/mL (≈ 5.79 µM) |
| O=Cc1sc(N2CCOCC2)nc1-c1ccccc1 | 4.5 µg/mL (≈ 16.4 µM) |
| Cl.OC12CC3C[C@H](C1)C(N1CCOCC1)[C@@H](C3)C2 (some centres undefined) | 36.8 µg/mL |
| COC(=O)c1cc(CSC(=N)N)ccc1OCCC(C)C.Cl | > 52 µg/mL |
| O=C(C1CCCO1)N(c1ccc(F)cc1)C1C=CS(=O)(=O)C1 (centres undefined) | > 48.8 µg/mL |
| Cc1ccsc1C(=O)NCc1ccc(Cl)cc1 | 1.8 µg/mL (≈ 6.77 µM) |
| O=C(CN1C(=O)NC2(CCCCCC2)C1=O)N1CCCCC1 | > 46.1 µg/mL |
| CC(C)(CCO)Nc1ncnc2onc(-c3ccc(F)cc3)c12 | > 47.5 µg/mL |
| COc1ccc(CC(=O)OCC(=O)Nc2cc(Cl)ccc2C)cc1 | 7 µg/mL (≈ 20.1 µM) |
| COc1ccc2c(c1)nc(SCC(O)c1ccccc1)n2C (centres undefined) | 41.3 µg/mL (≈ 131 µM) |
| Cc1ccc(OCc2csc(N)n2)cc1 | > 33 µg/mL |
| CCOc1cc(C2NC(=O)c3ccccc3O2)ccc1OC (centres undefined) | 8.6 µg/mL (≈ 28.7 µM) |
| Nc1nc(NCCOCCO)nc(NCc2ccccc2)c1[N+](=O)[O-] | > 52.3 µg/mL |
| CCOc1ccccc1NC(=O)Nc1ccc(CC#N)cc1 | 37.8 µg/mL (≈ 128 µM) |
| CN(C)/C=C1\C(=O)Oc2ccccc2C1=O | 32.4 µg/mL (≈ 149 µM) |
| COc1ccc(OC)c(NC(=O)CCNC(=O)c2ccco2)c1 | 44.7 µg/mL (≈ 140 µM) |
| COc1ccccc1COC(=O)CN1C(=O)NC2(CCCCC2C)C1=O (centres undefined) | > 54.1 µg/mL |
| O=C(O)CN1c2cccc3cccc(c23)S1(=O)=O | 38.2 µg/mL (≈ 145 µM) |
| COc1ccc(C(=O)n2cnc3ccccc32)cc1[N+](=O)[O-] | 29.4 µg/mL (≈ 98.9 µM) |
| O=C(COC(=O)/C=C/c1ccc(OC(F)F)cc1)NC(=O)NC1CCCCC1 | 4.5 µg/mL (≈ 11.4 µM) |
| Cc1ccc(S(=O)(=O)N(CC(=O)N2CCOCC2)c2ccc(C(C)C)cc2)cc1 | 4.6 µg/mL (≈ 11 µM) |
| COc1ccc(CCN(C)Cc2cccc3ccccc23)cc1OC | 37.1 µg/mL (≈ 111 µM) |
| CCOc1ccccc1NC(=O)c1nc(-c2ccccc2)oc1C | 0.9 µg/mL (≈ 2.79 µM) |

| SMILES | solubility kinetic |
| --- | --- |
| Cc1ccc([N+](=O)[O-])c(NC2OC(CO)C(O)C2O)c1 (centres undefined) | > 42.6 µg/mL |
| O=C(CN1C(=O)NC2(CCCCC2)C1=O)NCCc1ccccc1 | > 49.4 µg/mL |
| Cn1c(CN2CCN(S(C)(=O)=O)CC2)nc2cc([N+](=O)[O-])ccc21 | > 53 µg/mL |
| CCCS(=O)(=O)c1csc(C(=O)OC)c1N | 28.7 µg/mL (≈ 109 µM) |
| CCOC(=O)c1sc(NC(=O)C2CC(=O)N(c3ccc(OCC)cc3)C2)nc1C (centres undefined) | 9.9 µg/mL (≈ 23.7 µM) |
| Cn1c(N)c(C(=O)COC(=O)Cc2cccs2)c(=O)n(C)c1=O | > 50.6 µg/mL |
| CCOc1cc(C#N)ccc1OCC(=O)N1CCc2ccccc2C1 | 45.5 µg/mL (≈ 135 µM) |
| Cc1cc(C(=O)OCC(=O)NC(C)c2ccc(F)cc2)c(C)o1 (centres undefined) | 11.4 µg/mL (≈ 35.7 µM) |
| CC(C)(C)c1csc(NC(=O)C2=COCCO2)n1 | 40.2 µg/mL (≈ 150 µM) |
| NC(=O)NOCc1cccc(Cl)c1 | > 30.1 µg/mL |
| CC(C)(C)OC(=O)N1CCC[C@H]1C(=O)Nc1ccc(C#N)cc1 | 40.7 µg/mL (≈ 129 µM) |
| CC(=O)c1cccc(NC(=O)c2cccc(NC(=O)c3ccco3)c2)c1 | < 0.4 µg/mL |
| O=c1[nH]c2ccc(NCc3ccc(F)cc3)cc2[nH]1 | 35.9 µg/mL (≈ 140 µM) |
| CCOC(=O)C1CCN(C(=O)c2cc3ccccc3oc2=O)CC1 | 48.4 µg/mL (≈ 147 µM) |
| N/C(=N\OC(=O)c1ccc([N+](=O)[O-])cc1)c1ccc(Br)cc1 | < 0.3 µg/mL |
| Cc1c(C(=O)OCC(=O)N(C)c2ccccc2)cccc1[N+](=O)[O-] | 38.1 µg/mL (≈ 116 µM) |
| O=C(c1cc2cc(F)ccc2[nH]1)N1CCc2ccccc21 | 1.4 µg/mL (≈ 4.99 µM) |
| COc1ccc(NC(=O)c2cc(=O)[nH]c3ccccc23)cc1 | 2.1 µg/mL (≈ 7.14 µM) |
| O=C(NC(=O)c1c(F)cccc1F)Nc1ccccc1SC(F)F | < 0.4 µg/mL |
| COc1cc(NS(=O)(=O)c2cn(C)cn2)cc(OC)c1 | 8.9 µg/mL (≈ 29.9 µM) |
| CN1CC(=O)N(CC(=O)NC2CCCCC2)C1=O | > 38 µg/mL |
| O=C(CN1C(=O)NC2(CCc3ccccc32)C1=O)c1ccccc1 (centres undefined) | 40.1 µg/mL (≈ 125 µM) |
| O=C(NC1CCN(c2ncccn2)CC1)c1ccccc1F | 39.7 µg/mL (≈ 132 µM) |
| CCOC(=O)C1(CC2CC2)CCN(C(=O)c2ocnc2C)CC1 | > 48.1 µg/mL |

The remaining lines, values ahead:

| solubility kinetic | SMILES |
| --- | --- |
| > 42.6 µg/mL | Cl.N=C(c1ccc([N+](=O)[O-])cc1)N1CCCCCC1 |
| 1.4 µg/mL (≈ 4.25 µM) | N#CC(C#N)=CN=c1ccn(Cc2ccc(Cl)cc2Cl)cc1 |
| 0.3 µg/mL (≈ 0.803 µM) | CCOC(=O)CNC(=O)c1sc(NC(=O)/C=C/c2ccccc2)nc1C |
| 13.6 µg/mL (≈ 44.8 µM) | Cc1ccc(SCC(=O)NCCc2ccc(F)cc2)cc1 |
| 22.1 µg/mL (≈ 66.3 µM) | CCC(C)(C)NC(=O)C(OC(=O)c1ccco1)c1ccccc1F (centres undefined) |
| 4.5 µg/mL (≈ 11.1 µM) | CCOC(=O)Cc1csc(NC(=O)COC(=O)/C=C/c2ccc(OC)cc2)n1 |
| 16.8 µg/mL (≈ 52.8 µM) | O=C(Nc1ccccc1-c1ccccc1)c1ccccc1[N+](=O)[O-] |
| 4.1 µg/mL (≈ 14.8 µM) | CC(=O)c1c(C)[nH]c(C(=O)Nc2nc(C)cs2)c1C |
| > 37.8 µg/mL | N#Cc1c(Nc2ccccc2Cl)s[nH]c1=O |
| 1.9 µg/mL (≈ 6.41 µM) | COc1ccc(NC(=O)NC2CCCc3ccccc32)cc1 (centres undefined) |
| > 45.1 µg/mL | CCN(C(=O)c1ccco1)c1nnc(-c2cccnc2)s1 |
| < 0.6 µg/mL | Cc1ccc(C(=O)CCC(=O)Nc2ccccc2C)cc1C |
| 15.6 µg/mL (≈ 54.1 µM) | O=C(Nc1ccc2[nH]c(=O)[nH]c2c1)c1ccc([N+](=O)[O-])o1 |
| > 49.7 µg/mL | O=C1NC(=Nc2ccccc2Br)SC1(CO)CO |
| > 39 µg/mL | CCOc1ccc(-n2ccc(=O)c(C(=O)O)n2)cc1 |
| 19.6 µg/mL (≈ 65.9 µM) | Cc1cnc(NC(=O)CSCc2c(C)noc2C)s1 |
| 30.7 µg/mL (≈ 108 µM) | Cc1csc(NC(=O)c2cc(C)nc3ccccc23)n1 |
| > 49.7 µg/mL | COc1ccccc1CNC(=O)COC(=O)Cc1cccc(F)c1 |
| 9.8 µg/mL (≈ 28.7 µM) | O=C(Cc1ccccc1)Nc1cc([N+](=O)[O-])ccc1N1CCOCC1 |
| 33.7 µg/mL (≈ 124 µM) | CCc1ccc(NC(=O)CSc2ccccn2)cc1 |
| 0.9 µg/mL (≈ 3.28 µM) | O=C(Nc1ccccn1)c1ccc(-c2ccccc2)cc1 |
| > 52.6 µg/mL | CCN(C(=O)COC(=O)c1nccnc1N)c1cccc2ccccc12 |
| 34.4 µg/mL (≈ 127 µM) | CC(CCc1ccccc1)NC(=O)c1ccccc1F (centres undefined) |

| solubility kinetic | SMILES |
| --- | --- |
| 0.5 µg/mL (≈ 1.39 µM) | CC(C)c1nc2sc3c(SCC(N)=O)ncnc3c2c2c1CCC2 |
| 4.2 µg/mL (≈ 16.6 µM) | COc1ccc(C(C#N)=C2C=CC(=NO)C=C2)cc1 |
| 8.2 µg/mL (≈ 25.1 µM) | C=CCOc1nc2c(c(=O)n(C)c(=O)n2C)n1Cc1ccccc1 |
| 0.2 µg/mL (≈ 0.561 µM) | COc1ccc(Nc2nc(NCc3ccco3)nc(N)c2[N+](=O)[O-])cc1 |
| > 52.9 µg/mL | COc1ccc(C(=O)N2CCC(C(=O)Nc3ccc(C)cc3)CC2)cc1 |
| 1.9 µg/mL (≈ 4.96 µM) | O=C(COC(=O)Cc1c(F)cccc1Cl)NC(=O)Nc1ccccc1F |
| > 39.5 µg/mL | O=C(Cc1cccs1)NCCc1ccc(F)cc1 |
| 20.2 µg/mL (≈ 60.3 µM) | CCOC(=O)CNC(=O)c1cccnc1Oc1ccc(Cl)cc1 |
| 52.7 µg/mL | COc1ccccc1C(=O)NCCN1CCN(c2ccccc2)CC1.Cl |
| 24 µg/mL (≈ 77.4 µM) | Cc1noc(C)c1C(=O)OCC(=O)Nc1c(F)cccc1F |
| 7.2 µg/mL (≈ 24.3 µM) | C=CCNC(=S)N(Cc1ccccc1)Cc1ccccc1 |
| > 33.9 µg/mL | C=CC(=O)NC(C)(C)CCN1CCOCC1 |
| 27.5 µg/mL (≈ 102 µM) | CCc1ccc(S(=O)(=O)Nc2nccs2)cc1 |
| > 43 µg/mL | Cc1ccsc1C(=O)N[C@@H](C)c1nnc2ccccn12 |
| > 50 µg/mL | O=C(NC1CCCCC1)c1ccc(N2CCOCC2)c([N+](=O)[O-])c1 |
| 4 µg/mL (≈ 14.9 µM) | Cc1csc(NC(=O)c2ccc3ccccc3n2)n1 |
| 16.2 µg/mL (≈ 49.9 µM) | COc1ccc(CNC(=O)CSC(=S)N2CCCC2)cc1 |
| > 58.4 µg/mL | Cc1ccccc1C(=O)NC(CC(C)C)C(=O)NCC(C)(C)N1CCOCC1 (centres undefined) |
| 11.3 µg/mL (≈ 36.5 µM) | Cc1ccsc1C(=O)OCC(=O)NC1CCCC(C)C1C (centres undefined) |
| 0.7 µg/mL (≈ 2.27 µM) | Cc1ccc2cc3cc(C(=O)NC4CCCCC4)oc3nc2c1 |
| 17.4 µg/mL (≈ 45.9 µM) | Cc1ccc(S(=O)(=O)N2CCC[C@H]2C(=O)Nc2ccccc2Cl)cc1 |
| > 44.9 µg/mL | COc1ccc(C(=O)NCC(=O)NCc2ccncc2)cc1 |
